{"source": "patent US9517221B2", "about": "“(2R)-2-propyloctanoic acid for functional brain disease” (ONO PHARMACEUTICAL CO., LTD., priority 2006, dated 2016)", "format_in_all_cases": "in vivo, rat", "key": {"[1]": {"system": "olfactory bulbectomized rats", "assay": "Hyperemotional reactivity (hyperemotional score) of olfactory bulbectomized rats", "design": "key to Hyperemotional score (mean ± S. E.), One day administration, Before administration / Hyperemotional score (mean ± S. E.), One day administration, After administration / Hyperemotional score (mean ± S. E.), Seven days administration, Before administration / Hyperemotional score (mean ± S. E.), Seven days administration, After administration: irritability score per Gomita et al. (1983) criteria", "settings": "for Hyperemotional score (mean ± S. E.), Seven days administration, After administration: 1 hour to 1 hour 10 minutes after 7 days administration; for Hyperemotional score (mean ± S. E.), Seven days administration, Before administration: before administration of the 7 days administration; for Hyperemotional score (mean ± S. E.), One day administration, After administration: 1 hour to 1 hour 10 minutes after 1 day administration; for Hyperemotional score (mean ± S. E.), One day administration, Before administration: baseline before grouping, 12 animals", "experimental": "SPF rats (Crlj: WI) were used in the test. The animal for olfactory bulbectomy was anesthetized with pentobarbital sodium (Nembutal R Injection, Dainippon Pharmaceutical, dose: 1 mL/kg (intraperitoneal administration)), and the head was fixed using a brain stereotaxic apparatus (ASI Instruments, Inc., NARISHIGE). After incising the head skin, holes are opened at right and left olfactory bulb regions of the skull using a dental drill (manufactured by MINITOR), and the right and left olfactory bulbs were removed by sucking them using an aspirator connected to a tip-removed oral sonde, and the head skin was stitched thereafter. In this connection, in the case of the animals for sham-operation, anesthesia, brain fixation and head skin incision were carried out in the same manner as in the animals for olfactory bulbectomy, holes are opened at right and left olfactory bulb regions of the skull and the head skin was stitched without carrying out suction removal of the olfactory bulbs. The rats after olfactory bulbectomy were put into a series of five stainless steel cages, each of which was partitioned into two parts with an acrylic board for individual rearing space, and individually reared under a dark condition. The rats were subjected to the following tests of (2) and (3).\n• (a) Sham-operation group (12 animals); • (b) Vehicle control group (12 animals); • (c) 3 mg/kg administration group (12 animals) of (2R)-2-propyloctanoic acid; • (d) 10 mg/kg administration group (12 animals) of (2R)-2-propyloctanoic acid; • (e) 10 mg/kg administration group (12 animals) of Milnacipran hydrochloride. [Drug Administration]\nAs shown below, drug solution or vehicle was administered once a day for 8 days, a total of 8 times, at a respective liquid dose of 5 mL/kg. • (a) Sham-operation group: vehicle (0.1% by volume Tween 80) aqueous solution; • (b) Vehicle control group: vehicle (0.1% by volume Tween 80) aqueous solution; • (c) 3 mg/kg administration group of (2R)-2-propyloctanoic acid: a drug solution in which (2R)-2-propyloctanoic acid was prepared to be 0.6 mg/mL with the vehicle; • (d) 10 mg/kg administration group of (2R)-2-propyloctanoic acid: a drug solution in which (2R)-2-propyloctanoic acid was prepared to be 2.0 mg/mL with the vehicle; • (e) 10 mg/kg administration group of milnacipran hydrochloride: a drug solution in which Milnacipran hydrochloride was prepared to be 2.3 mg/mL with the vehicle (Milnacipran itself is included in 2.0 mg/mL). (2) Examination of the Activity for Hyperemotional Reactivity <Evaluation Method>\nEvaluation of the hyperemotional reactivity was carried out (1) before the grouping, (2) from 1 hour to 1 hour and 10 minutes after administration of the 1 day drug administration, (3) before administration of the 7 days administration and (4) from 1 hour to 1 hour and 10 minutes after the administration (a total of 4 times), by scoring the degree of irritability once a rat in accordance with the following evaluation criteria of hyperemotional reactivity (hyperemotional score: prepared based on the method of Gomita et al. (Folia Pharmacologica Japonica, 82, 267, 1983). Additionally, all of the conditions of the evaluation were shot and recorded using a video camera (SSC-DC430, SONY) and handled as reference data."}, "[2]": {"system": "olfactory bulbectomized rats", "assay": "Influence upon anxiolytic behavior on an elevated plus maze in olfactory bulbectomized rats (Test Example 4-3)", "settings": "once a day for 8 days; test 2 hours after administration; present tense", "source_text": "Wistar male rats are used in the test. By fixing the head of each rat under pentobarbital sodium anesthesia to a brain stereotaxic apparatus, the head skin is incised and then holes are opened at right and left olfactory bulb regions using a dental drill to suck and remove the right and left olfactory bulbs using an aspirator. The head skin is stitched thereafter. In this connection, the suction and removal of olfactory bulbs are not carried out in the sham-operation group, and the head skin is stitched after opening holes at right and left olfactory bulb regions. […]\nAn elevated plus maze apparatus consisting of a open arm without a wall and a closed arm having a wall is used in the test. […] The anxiolytic behavior is analyzed from the pictures of a video camera by a video picture behavior analysis device.\nThe vehicle and test drug are repeatedly administered once a day for 8 days. […] After 2 hours of the administration, the animal is softly put on the platform toward one of the open arms and measured for 5 minutes. […] The items (1) to (6) shown below are measured using the video picture behavior analysis device, and (7) and (8) are counted after completion of the measurement. […]"}, "[3]": {"system": "olfactory bulbectomized rats", "assay": "Influence on hyperemotional score in olfactory bulbectomized rats (Test Example 4-2)", "settings": "oral once a day for 7 days; present tense", "source_text": "Wistar male rats are used in the test. By fixing the head of each rat under pentobarbital sodium anesthesia to a brain stereotaxic apparatus, the head skin is incised and then holes are opened at right and left olfactory bulb regions using a dental drill to suck and remove the right and left olfactory bulbs using an aspirator. The head skin is stitched thereafter. In this connection, the suction and removal of olfactory bulbs are not carried out in the sham-operation group, and the head skin is stitched after opening holes at right and left olfactory bulb regions. The rats after extraction of the olfactory bulbs are put into a series of five stainless steel cages, each of which is partitioned into two parts with an acrylic board for individual rearing space, and individually reared for 2 weeks under a dark condition, and then subjected to the following tests of <4-2> and <4-3>.\nThe vehicle and test drug are orally administered once a day repeatedly for 7 days. The evaluation is carried out under a quiet environment, before the grouping and on the 1st and 7th days after administration of the test drug. The degree of irritability is scored in accordance with the evaluation criteria shown below, before the grouping and before the administration of 7 days test drug administration, and after 1 hour of the administration of test drug administration of 1 day and 7 days. […]"}}}
{"smiles": "CCCCCC[C@@H](CCC)C(=O)O", "note": "[(2R)-2-propyloctanoic acid]", "values": [{"measurement": "Development of hyperemotionality versus vehicle control group", "setting": "[1]; 1st day and 7th day of the administration, result in words", "value": "inhibited development of hyperemotionality"}, {"measurement": "Hyperemotional score (mean ± S. E.), Seven days administration, After administration", "setting": "[1]; dose 3 mg/kg once a day", "value": "5.9 ± 1.5"}, {"measurement": "Hyperemotional score (mean ± S. E.), Seven days administration, Before administration", "setting": "[1]; dose 3 mg/kg once a day", "value": "6.3 ± 1.0"}, {"measurement": "Hyperemotional score (mean ± S. E.), One day administration, After administration", "setting": "[1]; dose 3 mg/kg", "value": "8.8 ± 1.4"}, {"measurement": "Hyperemotional score (mean ± S. E.), One day administration, Before administration", "setting": "[1]; dose 3 mg/kg", "value": "20.0 ± 0.0"}, {"measurement": "Hyperemotional score (mean ± S. E.), Seven days administration, After administration", "setting": "[1]; dose 10 mg/kg once a day", "value": "4.8 ± 0.8"}, {"measurement": "Hyperemotional score (mean ± S. E.), Seven days administration, Before administration", "setting": "[1]; dose 10 mg/kg once a day", "value": "6.7 ± 1.4"}, {"measurement": "Hyperemotional score (mean ± S. E.), One day administration, After administration", "setting": "[1]; dose 10 mg/kg", "value": "7.4 ± 0.9"}, {"measurement": "Hyperemotional score (mean ± S. E.), One day administration, Before administration", "setting": "[1]; dose 10 mg/kg", "value": "20.0 ± 0.0"}, {"measurement": "Anxiolytic behavior versus vehicle treating group", "setting": "[2]", "value": "suppresses the anxiolytic behavior"}, {"measurement": "Development of hyperemotionality versus vehicle group", "setting": "[3]", "value": "inhibits development of hyperemotionality"}]}
